Among the data in ChEMBL document CHEMBL1144677, “Novel quinazolinone derivatives as 5-HT7 receptor ligands” (Bioorg Med Chem, 2008) are IC50 values, retold here.

The structures appear in SMILES notation.

Experiment [1] addresses 5-hydroxytryptamine receptor 2A (Homo sapiens, UniProt P28223).
Description: Binding affinity at 5HT2A receptor
Another experiment addresses D(2) dopamine receptor (Homo sapiens, UniProt P14416).
The target in experiment [2] is T1, 5-hydroxytryptamine receptor 2C (Homo sapiens, UniProt P28335).
T1 sequence (P28335 whole entry): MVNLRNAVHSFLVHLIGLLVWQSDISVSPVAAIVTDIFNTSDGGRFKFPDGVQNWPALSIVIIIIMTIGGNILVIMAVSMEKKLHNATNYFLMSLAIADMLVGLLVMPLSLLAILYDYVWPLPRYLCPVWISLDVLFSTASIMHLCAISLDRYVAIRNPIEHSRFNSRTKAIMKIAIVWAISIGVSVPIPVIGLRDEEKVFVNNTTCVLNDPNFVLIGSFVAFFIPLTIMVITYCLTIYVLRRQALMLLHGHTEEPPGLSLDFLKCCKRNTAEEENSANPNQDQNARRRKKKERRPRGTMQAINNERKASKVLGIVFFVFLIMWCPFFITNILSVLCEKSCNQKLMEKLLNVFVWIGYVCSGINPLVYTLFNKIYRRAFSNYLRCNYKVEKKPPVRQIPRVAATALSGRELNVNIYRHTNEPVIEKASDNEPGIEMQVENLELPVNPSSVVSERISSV
Description: Binding affinity at 5HT2C receptor

For experiment [3], the target named is T2, 5-hydroxytryptamine receptor 1A (Homo sapiens, UniProt P08908).
T2 sequence (P08908 whole entry): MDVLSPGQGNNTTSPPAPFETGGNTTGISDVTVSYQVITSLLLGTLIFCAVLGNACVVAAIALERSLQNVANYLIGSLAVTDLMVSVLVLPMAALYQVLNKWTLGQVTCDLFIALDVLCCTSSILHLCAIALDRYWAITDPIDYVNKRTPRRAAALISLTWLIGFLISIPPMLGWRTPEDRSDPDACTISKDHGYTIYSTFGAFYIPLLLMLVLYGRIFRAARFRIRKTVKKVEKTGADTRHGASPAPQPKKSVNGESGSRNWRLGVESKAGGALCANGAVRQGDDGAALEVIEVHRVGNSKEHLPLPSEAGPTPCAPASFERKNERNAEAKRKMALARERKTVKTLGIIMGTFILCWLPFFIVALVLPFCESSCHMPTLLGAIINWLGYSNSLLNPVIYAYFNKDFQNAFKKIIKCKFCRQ
Description: Binding affinity at 5HT1A receptor

Sequence of 5-hydroxytryptamine receptor 2A (P28223 whole entry): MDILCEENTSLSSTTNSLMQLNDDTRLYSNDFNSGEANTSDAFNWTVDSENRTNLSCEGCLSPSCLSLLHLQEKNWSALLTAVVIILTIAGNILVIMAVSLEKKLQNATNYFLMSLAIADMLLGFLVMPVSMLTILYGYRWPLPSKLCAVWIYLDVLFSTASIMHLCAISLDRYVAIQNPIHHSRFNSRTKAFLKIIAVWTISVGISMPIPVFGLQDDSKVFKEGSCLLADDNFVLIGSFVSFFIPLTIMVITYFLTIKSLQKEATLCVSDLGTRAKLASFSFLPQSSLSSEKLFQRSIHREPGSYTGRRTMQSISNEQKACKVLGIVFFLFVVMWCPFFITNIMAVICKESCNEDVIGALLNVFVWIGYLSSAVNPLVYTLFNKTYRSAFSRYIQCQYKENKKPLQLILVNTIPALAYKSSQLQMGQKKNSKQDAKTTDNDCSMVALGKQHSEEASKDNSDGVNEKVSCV
Sequence of D(2) dopamine receptor (P14416 whole entry): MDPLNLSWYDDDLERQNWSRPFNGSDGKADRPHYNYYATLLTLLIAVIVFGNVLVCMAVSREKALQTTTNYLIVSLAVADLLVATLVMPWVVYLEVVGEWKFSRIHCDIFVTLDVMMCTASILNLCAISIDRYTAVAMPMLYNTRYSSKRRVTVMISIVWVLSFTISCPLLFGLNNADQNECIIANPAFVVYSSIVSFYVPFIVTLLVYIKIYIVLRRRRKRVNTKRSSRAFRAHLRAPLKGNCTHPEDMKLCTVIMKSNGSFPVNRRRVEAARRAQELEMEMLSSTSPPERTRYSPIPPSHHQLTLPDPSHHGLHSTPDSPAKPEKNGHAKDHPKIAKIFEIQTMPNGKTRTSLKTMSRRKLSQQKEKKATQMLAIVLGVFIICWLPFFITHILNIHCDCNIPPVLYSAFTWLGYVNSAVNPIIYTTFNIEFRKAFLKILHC
Description for D(2) dopamine receptor: Binding affinity at dopamine D2 receptor

One may read the IC50 as the concentration at which inhibition is half-maximal. With `Cc1cccc(N2CCN(CCCC(=O)NCc3nc4ccc(F)cc4c(=O)n3-c3ccccc3)CC2)c1C`, the IC50 in experiment [1] amounted to 0.42 µM; at D(2) dopamine receptor it was 4 µM; in experiment [2], 0.08 µM; in experiment [3] it was 0.22 µM.

On to `Cc1cccc(N2CCN(CCCC(=O)NCc3nc4ccccc4c(=O)n3-c3ccccc3)CC2)c1C`, for which the IC50 in experiment [1] was 1.1 µM; on D(2) dopamine receptor it was 6.9 µM; in experiment [3] it was 0.5 µM.

With `CCOc1ccccc1N1CCN(CCCC(=O)NCc2nc3ccc(F)cc3c(=O)n2-c2ccccc2)CC1`, the IC50 in experiment [1] is above 10 µM; against D(2) dopamine receptor, 1 µM; in experiment [2], 1.6 µM; in experiment [3], 0.5 µM.

With `COc1ccccc1N1CCN(CCCC(=O)NCc2nc3ccc(F)cc3c(=O)n2-c2ccccc2)CC1`, the IC50 in experiment [1] was above 10 µM; against D(2) dopamine receptor, 5.3 µM; in experiment [2], 0.22 µM; in experiment [3], 0.96 µM.

For `O=C(CCCN1CCN(c2cccc(C(F)(F)F)c2)CC1)NCc1nc2cc(F)ccc2c(=O)n1-c1ccccc1`, the IC50 was 0.62 µM in experiment [1], 6.6 µM at D(2) dopamine receptor, 1.3 µM in experiment [2] and 0.14 µM in experiment [3].
